Experimental data published in PMC4369398 (Journal of colloid and interface science, 2014).

What was measured:
Self-assembly in water = assay type: physicochemical; settings: for diameter (width) of self-assembled nanofibers: TEM, pH 7.0, 2.0 wt %, direct self-assembly without enzyme; for appearance / state in water: pH 7.0, 2.0 wt % concentration, optical image, for 2 via pH adjustment
CD73 = biological target: T1, CD73 (Homo sapiens, UniProt P21589)
T1 sequence (P21589 27-574): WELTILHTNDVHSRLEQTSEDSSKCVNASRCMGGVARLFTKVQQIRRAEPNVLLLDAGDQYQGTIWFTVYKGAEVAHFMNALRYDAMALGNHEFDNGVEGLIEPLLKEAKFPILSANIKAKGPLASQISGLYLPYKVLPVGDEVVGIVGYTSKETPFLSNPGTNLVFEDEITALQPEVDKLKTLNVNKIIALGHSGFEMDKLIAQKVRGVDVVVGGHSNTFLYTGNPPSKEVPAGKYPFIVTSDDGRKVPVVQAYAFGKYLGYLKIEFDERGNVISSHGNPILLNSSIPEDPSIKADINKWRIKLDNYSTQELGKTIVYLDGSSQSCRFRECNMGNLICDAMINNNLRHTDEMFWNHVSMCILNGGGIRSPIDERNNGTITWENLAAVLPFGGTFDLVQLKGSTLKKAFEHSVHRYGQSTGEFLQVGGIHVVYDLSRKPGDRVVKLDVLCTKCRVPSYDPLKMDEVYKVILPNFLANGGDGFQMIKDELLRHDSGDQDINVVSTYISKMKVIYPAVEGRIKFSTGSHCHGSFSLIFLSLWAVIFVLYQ

Row | Structure (SMILES) | diameter (width) of self-assembled nanofibers (Self-assembly in water) [nm] | appearance / state in water (Self-assembly in water) | hydrogel formation on adding CD73 (CD73; 1 μg of CD73 added to 0.5 mL of 2 wt % solution, 37 °C, pH 7.0) | diameter of nanofibers of the CD73-formed hydrogel (CD73; TEM, after CD73 treatment, pH 7.0, 2.0 wt %) [nm]
1 | O=C(Cc1ccc2ccccc2c1)N[C@H](Cc1ccccc1)C(=O)N[C@H](Cc1ccccc1)C(=O)N[C@H](CCCCNc1ncnc2c1ncn2[C@@H]1O[C@H](COP(=O)(O)O)[C@@H](O)[C@H]1O)C(=O)O [compound 1, naphthalene-D-Phe-D-Phe-D-Lys(AMP)] | 8 ± 1 | transparent solution | hydrogel formation after three days | 8 ± 1
2 | O=C(Cc1ccc2ccccc2c1)N[C@H](Cc1ccccc1)C(=O)N[C@H](Cc1ccccc1)C(=O)N[C@H](CCCCNc1ncnc2c1ncn2[C@@H]1O[C@H](CO)[C@@H](O)[C@H]1O)C(=O)O [compound 2, naphthalene-D-Phe-D-Phe-D-Lys(adenosine)] | 5 ± 1 | transparent hydrogel |  | 
